# Literature values, collected in patent US20220370477A1, “Solid Oral Dosage Forms Of Dexamethasone” (Jubilant Generics Limited, priority 2021, published 2022).
# “Also recorded” adds a separate entry of the source. Read-outs that look alike come from different tables or passages of the source.
smiles,measurement,setting,value
"C[C@@H]1C[C@H]2[C@@H]3CCC4=CC(=O)C=C[C@]4(C)[C@@]3(F)[C@@H](O)C[C@]2(C)[C@@]1(O)C(=O)CO [Dexamethasone, 9-fluoro-11β,17,21trihydroxy-16α-methylpregna-1,4-diene-3 ,20-dione]",Solubility,in acetone,sparingly soluble
same,Solubility,in dichloromethane,slightly soluble
same,Solubility,in ethanol,sparingly soluble
same,Solubility,in methanol,sparingly soluble
same,Solubility,in water,practically insoluble; also recorded: poorly water-soluble
